In patent publication US10532085B2, “Methods for increasing intracellular activity of Hsp70” (Orphazyme A/S, priority 2010, dated 2020):

Assays:
[1] = test system: U-2-OS osteosarcoma cells; experiment: Uptake and localization of fluorochrome-labeled recombinant protein; format: cell-based, Human; settings: 300 nM rHsp70-AF488, 24 h
Experimental: (§1) FIG. 2: Lysosomal Hsp70 stabilizes lysosomal membranes. (a) Representative confocal images of U-2-OS cells incubated with 300 nM rHsp70-AF488 (green) for 24 h, fixed and stained for lysosomal integral membrane protein-1 (LIMP-1; red). For co-localization with other organelle markers see FIG. 3. (b) U-2-OS cells were incubated with 300 nM rHsp70-AF488 for 24 h before quantification of rHsp70-AF488 in membranes (memb.) and supernatant (sup.) obtained by repeated freeze/thaw cycles and centrifugation the light membrane fraction (LMF). […] (c) Representative still images of U-2-OS cells exposed to photo-oxidation (acridine orange and blue light). The loss of lysosomal integrity is visualized by the loss of red and increase in green staining. (d and e) U-2-OS cells were incubated with indicated recombinant proteins (300 nM) for 24 h, and analyzed for lysosomal integrity upon photo-oxidation. When indicated, cells were treated with indicated siRNAs for 48 h prior to the addition of recombinant proteins (e). The values represent means±SD (standard deviation) for three (d) or five (e) independent experiments. Representative immunoblots of indicated proteins from U-2-OS cells left untreated or treated with control or Hsp70 siRNAs are shown on the right. Scale bars: 20 μm (a and c).
FIG. 3: Colocalization of endocytosed rHsp70-AF488 with lysosomes. […]

NPC−/− mice [2] = experiment: NPC1 in vivo pilot study: growth curves; settings: 10 mg/kg IP three times per week from 3 weeks of age vs PBS
Experimental: FIG. 12: Control NPC−/− mice (A) have shallower and more sporadic growth patterns than HSP70 treated mice (B). Points where growth curves stop abruptly, indicates mice killed for organs. In panel A: Series 1 and 3 are female; Series 2 and 5-8 are male. In panel B: Series 2 and 4-7 are female; Series 1, 3, and 8 are male.
(§2) Eight treated (rHSP70) NPC^−/− versus eight control (PBS only) NPC^−/− controls. Mice were treated IP three times per week with either 10 mg/kg of rHSP70 or vehicle alone (PBS) from 3 weeks of age. Three control and three treated mice were sacrificed at 7 or 9 weeks old (i.e. after 4 or 6 weeks of treatment, respectively). Organs were perfused (PBS), weighed and frozen for biochemical and immunohistochemical analysis.

U-2-OS cells = experiment: Lysosomal integrity upon photo-oxidation (acridine orange and blue light); format: cell-based, Human
Experimental: as §1
WT- and Hsp70-MEFs were generated, immortalized and maintained as described in the art. Human NPDA fibroblasts (83/24) originate from a skin biopsy of a patient with hepatosplenomegaly. Recombinant proteins were generated using the pET-16b vector system and Ni^2+-affinity-purification (Novagen), and labeled with Alexa Fluor 488 according to manufacturers protocol (Molecular Probes). To analyze the lysosomal integrity, we developed a real time imaging method of cells stained with acridine orange, a metachromatic weak base that accumulates in the acidic compartment of the cells staining them red and sensitizing them to photo-oxidation. The photo-oxidation-induced loss of the lysosomal pH-gradient and leakage of acridine orange to the cytosol from individual lysosomes was quantified visually as “loss of red dots” in U2-O—S cells and as a decrease in red and an increase in green fluorescence by Zeiss LSM DUO Software in fibroblasts. The total and cytoplasmic (digitonin-extracted) cathepsin activities were measured in digitonin-treated samples using zFR-AFC (Enzyme System Products) probe as described in the art. The tryptophan fluorescence spectra and liposome 90° light scattering were analyzed in a HEPES buffer (20 mM HEPES, 0.1 mM EDTA, pH as indicated) essentially as described in the art. Surface plasmon resonance measurements were performed with immobilized LUVs using a BIAcore 2000 system as described in the art. Hsp70 siRNA (5′-[…]-3′) and a […] were transfected with Oligofectamine (Invitrogen). Immunodetection was performed with standard protocols. Apoptosis-like cell death and lysosomal membrane permeabilization were analyzed essentially as described in the art. ASM activity was analyzed by Amplex Red Sphingomyelinase Assay Kit (A12220) from Molecular Probes with modifications described in the art. Statistical analysis was performed using a two-tailed, paired Student's T-test and all groups of data were tested for the comparability of their variances using an F-test.
Sub-confluent cells incubated with 2 μg/ml acridine orange for 15 min at 37° C. were washed, irradiated and analyzed in Hanks balanced salt solution complemented with 3% fetal calf serum. Cells for single cell imaging were selected from 8 pre-defined areas of each well in transmitted light-mode after which the same cells were immediately visualized and exposed to blue light from USH102 100W mercury arc burner (Ushio electric) installed in a U-ULS100HG housing (Olympus) for 20 sec. Fluorescence microscopy was performed on Olympus IX-70 inverted microscope with a LCPlanF1 ×20 objective with NA=0.40. […]

NPC−/− mice [3] = experiment: NPC1 in vivo pilot study: video recording and observation of condition; settings: 10 mg/kg IP three times per week
Experimental: as §2
Due to the small number of animals remaining after the 7 and 9 week time points we were unable to draw any conclusions regarding increased survival.

[4] = video recording at 9 and 10 weeks

rHsp70: recombinant (human) heat shock protein 70; in some tests labelled with Alexa Fluor 488
uptake, co-localization and membrane binding [1]: effective uptake of rHsp70, its specific co-localization with late endosomal and lysosomal markers and binding to lysosomal membranes | growth curves (body weight) (NPC−/− mice [2]): rise more steadily and reach higher weights | protection of lysosomes against photo-oxidation (lysosomal stabilization) (U-2-OS cells; recombinant proteins 300 nM, 24 h): protected lysosomes against photo-oxidation | reversal of Hsp70 siRNA-induced sensitization to photo-oxidation (U-2-OS cells; siRNA 48 h prior to addition of recombinant protein (300 nM)): fully reverted | condition at the point of culling (NPC−/− mice [3]): deteriorated quite badly within the space of a few days | activity and tremor on video (NPC−/− mice [3]; [4]): more active and had increased tremor | size and coat condition (NPC−/− mice [3]; [4]): larger, with better coat condition
